Source: patent publication US6703413B2 (Rhode Island Hospital, priority 1999, dated 2004)

Assays:
[1] = tested on: Untransfected glioblastoma cells; test: Cytotoxicity in glioblastoma cells; assay type: cell-based, human; conditions: 1 μM
From the text: (§1) The neoplastic cell lines used in the survey were standard tumor cell lines, e.g., PA1 human ovarian cell line, SKOV3 human ovarian cell line, HT29 human colon tumor cell line, DU145 human prostate tumor cell line, U251 human glioblastoma cell line, U251-MDR human glioblastoma cell line transfected with DNA encoding MDR, T98G human glioblastoma cell line, SP-1 human leukemia cell line, and Daudi human leukemia cell line.
(§2) Glioblastoma cells were transfected with a gene encoding multiple drug resistance (MDR).

[2] = tested on: MDR-transfected glioblastoma cells; test: Cytotoxicity in drug resistant glioblastoma cells
From the text: as §1, §2

human cancer cell lines = test: Cytotoxic activity of taurultam in vitro; assay type: cell-based
Method: The cytotoxic activity of taurultam was evaluated in vitro using the same human cancer cell lines as described above. […] The data also indicate that the cytotoxic effect is directly proportionate to the number of methylol molecules liberated per molecule of methylol-containing compound

SMILES	cytotoxicity [1]	cytotoxicity ([2]; 1 μM)	resistance of transfected cells ([2]; MDR-transfected versus untransfected)	apoptotic death (human cancer cell lines; cancer cells versus normal control cells)	cytotoxic activity relative to taurolidine (human cancer cell lines; of the activity observed with taurolidine)
COc1cccc2c1C(=O)c1c(O)c3c(c(O)c1C2=O)C[C@@](O)(C(=O)CO)C[C@@H]3O[C@H]1C[C@H](N)[C@H](O)[C@H](C)O1 [adriamycin]	killed	resistant	100-1000 times		
O=S1(=O)CCNCN1 [taurultam]				induced apoptotic death of cancer cells but not normal control cells	approximately 75%
